Measurements: paper PMC8742647 (Clinical and Translational Science, 2021)

Assays:
[1] = prediction of CLt,human by single-species allometric scaling from PXB-mice; set-up: species or system humans
[2] = ref Table S1; cited from earlier work
[3] = total clearance after intravenous administration to rats; type: in vivo, Sprague–Dawley rats; settings: intravenous cassette dose 0.1 mg/kg, N = 3
[4] = ref Table S1; cited from earlier work; remark: listed apart in the source
[5] = fraction unbound in plasma, equilibrium dialysis; type: in vitro ADME, Sprague–Dawley rat; settings: fraction unbound in rat plasma
[6] = prediction of CLt,human by multispecies allometric scaling, rule of exponent
[7] = prediction of CLt,human by physiologically based scaling using PXB-mice; set-up: species or system humans
[8] = prediction of CLt,human by in vitro–in vivo extrapolation; set-up: species or system humans
[9] = humans; ref Table S1; cited from earlier work
[10] = total clearance after intravenous administration to PXB-mice; type: in vivo, PXB‐mice (chimeric mice with humanized livers); settings: intravenous cassette dose 0.1 mg/kg, N = 3, noncompartmental analysis
[11] = fraction unbound in plasma, equilibrium dialysis; type: in vitro ADME, humans; settings: fraction unbound in human plasma

## CCNC(=O)OC1CCN(c2nncc3cc(OC)c(OC)cc23)CC1 [Carbazeran]
[1]; predicted/observed CLt,human
  Fold error (predicted/observed), PXB‐SSS: 0.34
[1]; scaled from CLt in PXB-mice, exponent 0.75
  Predicted CLt,human, PXB‐SSS: 12.8 mL/min/kg
[2]
  CLt, Monkeys: 87.87 mL/min/kg
[3]
  CLt, Rats: 42.22 mL/min/kg
[4]
  CLt, Dogs: 11.5 mL/min/kg
[5]
  f u,p, Rats: 0.169
[6]; from CLt in rats, monkeys and dogs
  Predicted CLt,human, ROE: 8.6 mL/min/kg
[6]; predicted/observed CLt,human
  Fold error (predicted/observed), ROE: 0.23
[7]; from CLt in PXB-mice, dispersion model, CLint per hepatocyte assumed equal
  Predicted CLt,human, PXB‐PBS: 16.4 mL/min/kg
[7]; predicted/observed CLt,human
  Fold error (predicted/observed), PXB‐PBS: 0.44
[8]; from in vitro CLint per human hepatocyte, dispersion model
  Predicted CLt,human, IVIVE: 15.5 mL/min/kg
[8]; predicted/observed CLt,human
  Fold error (predicted/observed), IVIVE: 0.41
[9]
  Observed CLt,human: 37.6 mL/min/kg
[10]
  CLt, PXB‐mice: 99.67 mL/min/kg
From CLt in rats, monkeys and dogs and fu,p ratio rat/human
  Predicted CLt,human, FCIM: 7.6 mL/min/kg
predicted/observed CLt,human
  Fold error (predicted/observed), FCIM: 0.20
[11]
  f u,p, Humans: 0.148
